Values belong to the molecule of their own block, whether it stands above or below them.
Assays:
B16F10 cells [1] = experiment: Glucosylceramide depletion study on Psd1 entrance in B16F10 cells; type: cell-based, murine; details: 20 µM PPMP, 1 h, without Psd1
Procedure: Figure 4 GlcCer reduction inhibits the entrance of FITC-Psd1 into B16F10 cancer cells. B16F10 cells (1.5 × 10^4) were incubated with or without 20 µM PPMP for 1 h followed by treatment with or without 9 µM FITC-Psd1 for 2 h. Fixed cells were stained with Vybrant™ Alexa Fluor™ 594 and DAPI. (a) B16F10 cells without treatments (−PPMP, −Psd1); (b) B16F10 cells treated with Psd1 for 2 h (–PPMP, +Psd1 (2 h)); (c) B16F10 cells treated with PPMP (+PPMP, −Psd1); (d) B16F10 cells treated with PPMP plus Psd1 (+PPMP, +Psd1 (2 h)). Pictures were acquired at 40× magnification. Inset zoom images are at 100× magnification. At least two experiments were performed independently.
B16F10 cells (1.5 × 10^4) in cover glass were previously incubated with 20 µM DL-threo-1-phenyl-2-palmitoylamino-3-morpholino-1-propanol (PPMP, Sigma-Aldrich Brasil, São Paulo, Brazil) inhibitor for 60 min followed by treatment with 9 µM Psd1 for 30 min or 2 h. The cells were fixed on glass slides with 4% paraformaldehyde plus 4% sucrose for 10 min and then stained with a Vybrant Alexa Fluor 594 Lipid Raft Labeling Kit (Thermo Fisher Scientific Inc, Maryland, USA). Briefly, 1.25 µg/mL cholera toxin subunit B (CT-B) and 160× diluted anti-CT-B were incubated with cells for 10 min each at 4 °C. Three PBS wash steps were performed between each stage. […]

B16F10 cells [2] = experiment: SYTOXGreen uptake (membrane permeabilization), B16F10 cells; type: cell-based, murine; details: 0.0001% H2O2, 30 min
Procedure: Figure 2 Psd1 promotes B16F10 live cell membrane permeabilization as monitored by SYTOX Green fluorescence. (A) Psd1 untreated and hydrogen peroxide-treated B16F10 cells. (B) A total of 1.5 × 10^4 B16F10 cells were incubated with 3 or 50 µM Psd1 for 30 min. (C) 1.5 × 10^4 B16F10 cells were incubated with 50 µM Psd1 for 1 h. All experiments were performed at 37 °C. Nucleus staining is shown in green (SYTOXGreen), and mitochondria are shown in red (MitoTracker Red CMXRos). Images are shown at 20× magnification. […] (E) Psd1 induces apoptosis in B16F10 cells. B16F10 cells were treated with 50 µM Psd1 for 24 h and labeled with propidium iodide, and the DNA content was analyzed by flow cytometry for the sub-G0/G1 profile. At least two independent experiments were performed. TEXT PRINTED IN THE PICTURE: (E) Control: Sub-G1: 4.4% | (E) Psd1: Sub-G1: 60.6% (50μM)
Images were obtained in the X, Y, and Z planes of the image, giving the image a 3-dimensional depth (Z-stack) at 100× magnification with a Zeiss Cell Observer Yokogawa Spinning Disk confocal microscope (Cell Observed SD, Carl-Zeiss, Oberkochen, Germany) located in the Microscopia Óptica de Luz Gustavo de Oliveira Castro (Plamol) platform in Universidade Federal do Rio de Janeiro. To measure the mean fluorescence intensity (MFI), Zen Lite Blue (Carl-Zeiss, Oberkochen, Germany) software was used. On average, thirty cells per field were analyzed in fourteen fields by experiments. Then, the region of interest (ROI), specifically the nucleus and mitochondria, was tagged on the cells photographed for fluorescence analysis, which is given by the software from the intensity of the pixels. Subsequently, the statistical test was performed using GraphPad Prism version 7.4, and the values presented are averages with the corresponding standard deviations (SDs).
B16F10 cells were trypsinized and counted, and 1.5 × 10^4 cells/well in DMEM containing 0.1% (w/v) bovine serum albumin BSA were plated in a cell-view glass bottom culture dish with four compartments (Thermo Fisher Scientific Inc, Maryland, USA) and then incubated at 37 °C overnight to adhere. Post-treatment, the cells were treated with 3 or 50 µM Psd1 for 30 or 60 min and maintained at the same temperature. Cells treated with only water or 0.0001% H2O2 for 30 min were used as the negative and positive controls, respectively. Washes with saline were carried out between the additions of each probe followed by incubation at room temperature. The cells were incubated with 1 µL of SG, 1.5 µL of MitoTracker Red CMXRos, and 2 µL of DAPI for 10, 20, and 10 min, respectively. The fluorescent images were acquired by confocal microscopy.

recombinant cyclin F-GST = target: T1, recombinant cyclin F-GST; experiment: SPR; Biacore X, CM5 chip, 25 °C; cyclin F-GST immobilised by amine coupling (10 mM sodium acetate pH 4.0); Psd1 10-240 µM injected at 15 µL/min for 4 min in 10 mM HEPES, 150 mM NaCl, pH 7.4; Psd1-GST curves subtracted; global fit, 1:1 Langmuir model; details: both partners purified
T1 chain: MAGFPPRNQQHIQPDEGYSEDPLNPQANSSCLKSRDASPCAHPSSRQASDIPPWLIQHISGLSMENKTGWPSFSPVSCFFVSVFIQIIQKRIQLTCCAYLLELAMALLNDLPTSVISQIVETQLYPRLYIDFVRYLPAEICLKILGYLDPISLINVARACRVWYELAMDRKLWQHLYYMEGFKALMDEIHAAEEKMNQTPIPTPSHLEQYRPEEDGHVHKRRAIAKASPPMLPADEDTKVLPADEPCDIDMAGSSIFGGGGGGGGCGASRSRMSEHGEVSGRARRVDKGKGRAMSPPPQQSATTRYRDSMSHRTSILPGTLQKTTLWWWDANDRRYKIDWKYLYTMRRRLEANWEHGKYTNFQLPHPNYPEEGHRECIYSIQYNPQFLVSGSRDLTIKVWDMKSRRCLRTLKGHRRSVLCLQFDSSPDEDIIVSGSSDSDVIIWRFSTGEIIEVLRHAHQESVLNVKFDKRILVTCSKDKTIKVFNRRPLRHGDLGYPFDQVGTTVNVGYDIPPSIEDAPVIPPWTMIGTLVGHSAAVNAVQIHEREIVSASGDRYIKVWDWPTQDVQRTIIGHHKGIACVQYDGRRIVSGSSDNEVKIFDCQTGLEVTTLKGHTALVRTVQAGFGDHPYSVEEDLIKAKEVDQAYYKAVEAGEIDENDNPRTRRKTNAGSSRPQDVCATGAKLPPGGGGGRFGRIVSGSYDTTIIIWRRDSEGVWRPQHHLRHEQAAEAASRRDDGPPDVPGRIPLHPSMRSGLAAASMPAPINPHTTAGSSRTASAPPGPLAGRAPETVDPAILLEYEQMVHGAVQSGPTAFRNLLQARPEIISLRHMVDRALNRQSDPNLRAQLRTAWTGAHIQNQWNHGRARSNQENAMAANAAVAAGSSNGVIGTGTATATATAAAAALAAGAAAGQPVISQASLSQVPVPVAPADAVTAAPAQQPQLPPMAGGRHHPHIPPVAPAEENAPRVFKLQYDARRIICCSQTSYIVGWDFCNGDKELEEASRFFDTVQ

Molecule: CCCCCCCCCCCCCCCC(=O)N[C@H](CN1CCOCC1)[C@H](O)c1ccccc1 (racemic) [PPMP, DL-threo-1-phenyl-2-palmitoylamino-3-morpholino-1-propanol]
CT-B / Alexa Fluor 594 red signal (lipid raft; GlcCer) (B16F10 cells [1]): significant reduction in the bright red signal

Molecule: OO [hydrogen peroxide, reference compound]
SYTOXGreen fluorescence, positive control (B16F10 cells [2]): green fluorescence signal increased significantly

Kd (recombinant cyclin F-GST): 1500 µM
B1: Pisum sativum defensin 1 (peptide, UniProt P81929 1-46, looked up)
chain: KTCEHLADTYRGVCFTNASCDDHCKNKAHLISGTCHNWKCFCTQNC
notes: Pisum sativum defensin 1 (Psd1), 46-amino acid residue plant defensin from pea seeds; also called Psd1; pea defensin Psd1; source: expressed and purified as previously described [11], first step HiPrep 26/60 Sephacryl S-100 HR; the abstract says Psd1 can be expressed in Pichia pastoris

From publication PMC7219108, “Pisum sativum Defensin 1 Eradicates Mouse Metastatic Lung Nodules from B16F10 Melanoma Cells” (International Journal of Molecular Sciences, 2020)
